The results in this text go back to ChEMBL document CHEMBL1667732, “The diarylheptanoid (+)-aR,11S-myricanol and two flavones from bayberry (Myrica cerifera) destabilize the microtubule-associated protein tau” (J Nat Prod, 2011).

The subject of one data set is IMR-32. In words: Destabilization of microtubule-associated protein tau protein in human IMR32 cells assessed as reduction in tau protein level at 50 to 250 uM. The data set is classed as cell-based.
In a further data set the test system is HeLa-C3. In words: Destabilization of microtubule-associated protein tau protein in human HeLa-C3 cells assessed as reduction in tau protein level at 50 to 250 uM. The data set is classed as cell-based.
The nature of data set [1]: Cytotoxicity against human IMR32 cells by LDH release assay. It is filed as cell-based. The note with it: imr-32.
The nature of data set [2]: Cytotoxicity against human HeLaC3 cells by LDH release assay. It is filed as cell-based. The note with it: hela c3. Background: LDH in the medium is a marker of cell lysis.
The species entered for a further data set is Mus musculus. In words: Destabilization of microtubule-associated protein tau protein in mouse brain slice assessed as reduction in tau protein level at 50 to 250 uM. The data set is classed as tissue-based.

The source made the active and inactive calls. No cut-off for these calls is given here.

For the compound `COc1c2cc(c(O)c1OC)CCCC[C@H](O)CCc1ccc(O)c-2c1`, the outcome in the data set with IMR-32, in the data set with HeLa-C3 and in the data set filed under Mus musculus was Active. For the same compound, the Activity result in data set [1] and in data set [2] was “Non-toxic” in each case.
